Laboratory results published in patent US20230212138A1, “PHD INHIBITOR COMPOUNDS, COMPOSITIONS, AND THEIR USE” (Akebia Therapeutics, Inc., priority 2020, published 2023).
pIC50: −log10 of the molar value.

Key:
Format in all cases: biochemical
[1] = target: T1, full-length human PHD3 (Homo sapiens, UniProt Q9H6Z9); assay: TR-FRET assay, PHD3 enzymatic IC50; details: 35 nM PHD3, 1 μM 2-OG
T1 construct: It was expressed in E. coli as the full-length protein; 6-His (N); purchased Active Motif 81033; host or cells: E. coli
Text: (§1) In the presence of 2-oxoglutarate and O2, PHD enzyme hydroxylates proline 564 of biotin-tagged HIF-1α peptide resulting in generation of biotin-tagged HIF-1α-hydroxyproline, succinate and CO2. The resulting proximity of the donor fluorophore complex, monoclonal antibody anti-6His-Terbium (Tb)-cryptate Gold, bound to the His-tagged VHL protein, EloB, EloC complex (His-VBC) and the acceptor fluorophore, SA-D2 complex, bound to HIF-1α-hydroxyproline results in a fluorescence resonance energy transfer signal that can be detected and quantified
(§2) Time-resolved fluorescence resonance energy transfer (TR-FRET) assay was utilized to determine the enzymatic half maximal inhibitory concentration (IC50) value of PHD inhibitors against the full-length human prolyl-4-hydroxylase domain (PHD) enzymes, PHD1, PHD2, and PHD3. The TR-FRET assay was developed based on the specific binding of hydroxylated HIF-1α peptide with the complex formed by VHL, EloB and EloC (VBC), to generate a fluorescent signal. Terbium (Tb)-Donor (monoclonal antibody anti-6His-Tb-cryptate Gold) and D2-acceptor (streptavidin [SA]-D2) of TR-FRET are linked to the VBC complex and to HIF-1α peptide, respectively. The VBC complex binds specifically to the HIF-1α peptide when it is hydroxylated, allowing energy transfer from TR-FRET donor to acceptor (FIG. 1).
Recombinant human PHD3 protein (molecular weight 31.1 kDa) was purchased from Active Motif (Carlsbad, Calif., USA). It was expressed in E. coli as the full-length protein (NCBI accession number NP_071356.1) with an N-terminal 6-His tag (catalog #81033, Lot #24417001).
(§3) PHD inhibitor compound was preincubated with PHD enzyme in a 10 μL reaction volume in white 384-well Optiplate microplates (catalog #6007290, Perkin Elmer, Waltham, Mass., USA). For this, 5 μL PHD inhibitor compound was serially diluted with dilution buffer (50 mM HEPES [4-(2-hydroxyethyl)-1-piperazineethanesulfonic acid] pH 7.5, 50 mM sodium chloride [NaCl], 0.01% Tween-20, 0.01% purified bovine serum albumin [BSA]) and mixed with 5 μL PHD enzyme mix prepared as a 4× concentrate in the dilution buffer containing PHD enzyme (60 nM PHD1, 20 nM PHD2, 140 nM PHD3), 40 μM ferrous ammonium sulfate (FAS), 4 mM sodium (Na) ascorbate. The plates were incubated for 30 minutes at room temperature without rotation.
(§4) Five microliters of the VBC/anti-6His-Tb-cryptate Gold mix prepared as a 4×concentrate in dilution buffer containing 20 nM His-VBC, 1.32 nM monoclonal antibody anti-6His-Tb-cryptate Gold was then added. This step was followed immediately by the addition of 5 μL of the HIF-1α C35 substrate mix prepared as a 4×concentrate in the dilution buffer containing 120 nM biotin-labeled HIF-1α C35, 132 nM SA-D2, 4 μM 2-oxoglutarate (2-OG) to reach a final reaction volume of 20 μL.
(§5) The final assay reaction contained 50 mM HEPES, pH 7.5, 50 mM NaCl, 1 μM 2-OG, 10 μM FAS, 1 mM Na ascorbate, 0.01% Tween-20, 0.01% purified BSA, 30 nM biotin-labeled HIF-1α C35, 5 nM His-VBC, 0.33 nM monoclonal antibody anti-6His-Tb-cryptate Gold, 33 nM SA-D2 and PHD enzyme (15 nM PHD1, 5 nM PHD2, or 35 nM PHD3) with the diluted compound.
(§6) For the measurement of the IC50 of PHD inhibitor compound, reactions were incubated for 10 minutes at room temperature and then read on a Perkin Elmer EnVision (Waltham, Mass., USA) at an excitation wavelength of 340 nm and at emission wavelengths of 615 nm and 665 nm. The data represent the quotient of the signal intensity at 665 nm and 615 nm, automatically calculated by Envision Manager software (Perkin Elmer, Waltham, Mass., USA). The IC50 values (mean, standard deviation, standard error of the mean, geometric mean and 95% confidence interval) were determined using a four-parameter curve-fit using GraphPad Prism 7.0 (GraphPad, La Jolla, Calif., USA) and represent the compound concentration plotted against the calculated ratio of 665 nm and 615 nm. […]

[2] = target: T2, full-length human PHD1 (Homo sapiens, UniProt Q96KS0); assay: TR-FRET assay, PHD1 enzymatic IC50; details: 15 nM PHD1, 1 μM 2-OG
T2 construct: expressed in a baculovirus expression system as the full-length protein; FLAG (N); purchased Active Motif 81064; host or cells: baculovirus expression system
Text: as §1, §2
Recombinant human PHD1 protein (catalog #81064, Lot #24717001) was purchased from Active Motif (Carlsbad, Calif., USA). PHD1 was expressed in a baculovirus expression system as the full-length protein (NCBI accession number NP_542770.2) with an N-terminal FLAG tag (molecular weight 44.9 kDa). Purity (>90%) was assessed by SDS-PAGE.
as §3, §4, §5, §6

[3] = target: T3, full-length human PHD2 (Homo sapiens, UniProt Q9GZT9); assay: TR-FRET assay, PHD2 enzymatic IC50; details: 5 nM PHD2, 1 μM 2-OG
T3 construct: The PHD2 construct contained amino acids 1 to 426 of PHD2; His tag (N, cleaved yes); TEV protease cleavage site (N, cleaved yes); host or cells: Sf9 insect cells (baculovirus)
Text: as §1, §2
The full-length human PHD2 enzyme was produced with a baculovirus infected insect cell (BIIC) expression system by Beryllium (Bedford, Mass., USA). The PHD2 construct contained amino acids 1 to 426 of PHD2 (UniProt Knowledgebase[UniProtKB]/Swiss-Prot accession number Q9GZT9.1), and a His tag and a Tobacco Etch Virus (TEV) protease cleavage site at the N-terminus. The construct was expressed in Sf9 insect cells, purified by Ni-NTA column and digested with TEV protease to remove the His tag.
as §3, §4, §5
For the measurement of the IC50 of PHD inhibitor compound, reactions were incubated for 10 minutes at room temperature and then read on a Perkin Elmer EnVision (Waltham, Mass., USA) at an excitation wavelength of 340 nm and at emission wavelengths of 615 nm and 665 nm. The data represent the quotient of the signal intensity at 665 nm and 615 nm, automatically calculated by Envision Manager software (Perkin Elmer, Waltham, Mass., USA). […]

T3 sequence (Q9GZT9 whole entry, the tested form may be a part): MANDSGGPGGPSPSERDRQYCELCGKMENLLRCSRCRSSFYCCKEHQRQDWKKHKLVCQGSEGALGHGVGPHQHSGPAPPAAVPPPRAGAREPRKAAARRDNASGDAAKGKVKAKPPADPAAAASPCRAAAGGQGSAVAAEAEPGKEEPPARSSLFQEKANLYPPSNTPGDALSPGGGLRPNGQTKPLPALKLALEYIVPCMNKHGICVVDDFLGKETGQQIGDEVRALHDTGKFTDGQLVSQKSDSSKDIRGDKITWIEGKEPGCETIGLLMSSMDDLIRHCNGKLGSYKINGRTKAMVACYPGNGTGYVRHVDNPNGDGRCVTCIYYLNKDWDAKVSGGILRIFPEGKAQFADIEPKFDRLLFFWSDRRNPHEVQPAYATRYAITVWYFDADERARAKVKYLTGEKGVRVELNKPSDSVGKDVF
T1 sequence (Q9H6Z9 whole entry): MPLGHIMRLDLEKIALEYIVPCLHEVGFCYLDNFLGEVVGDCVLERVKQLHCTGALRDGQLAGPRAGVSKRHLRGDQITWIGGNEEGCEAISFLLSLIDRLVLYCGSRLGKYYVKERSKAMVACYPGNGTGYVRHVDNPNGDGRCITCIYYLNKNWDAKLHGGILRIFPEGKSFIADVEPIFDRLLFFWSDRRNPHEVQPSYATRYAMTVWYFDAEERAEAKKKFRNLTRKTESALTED
T2 sequence (Q96KS0 whole entry): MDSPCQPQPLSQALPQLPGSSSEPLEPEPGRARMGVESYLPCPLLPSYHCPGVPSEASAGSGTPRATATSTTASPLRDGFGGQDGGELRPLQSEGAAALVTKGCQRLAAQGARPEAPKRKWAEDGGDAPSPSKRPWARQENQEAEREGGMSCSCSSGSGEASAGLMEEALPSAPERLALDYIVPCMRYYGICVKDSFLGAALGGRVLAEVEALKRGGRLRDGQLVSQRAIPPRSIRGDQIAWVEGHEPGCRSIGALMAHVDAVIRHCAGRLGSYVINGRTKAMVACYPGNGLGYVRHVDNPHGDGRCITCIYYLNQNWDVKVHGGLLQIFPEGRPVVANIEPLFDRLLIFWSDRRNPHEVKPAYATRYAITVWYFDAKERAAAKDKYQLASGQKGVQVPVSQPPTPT

| SMILES | pIC50 [1] | pIC50 [2] | pIC50 [3] |
| --- | --- | --- | --- |
| CS(=O)(=O)Nc1ccc(-n2ncc(-c3ccc(C#N)cc3)c2O)nc1 [Compound 24, N-(6-(4-(4-cyanophenyl)-5-hydroxy-1H-pyrazol-1-yl)pyridin-3-yl)methanesulfonamide] | > 7.00 | > 7.00 | > 7.00 |
| N#Cc1ccc(-c2cnn(-c3ccc(NC(=O)C4CC4)cn3)c2O)cc1 [Compound 22, N-(6-(4-(4-cyanophenyl)-5-hydroxy-1H-pyrazol-1-yl)pyridin-3-yl)-cyclopropanecarboxamide] | 6.00 to 7.00 | > 7.00 | > 7.00 |
| CS(=O)(=O)c1ccc(-n2ncc(-c3ccc(CC#N)cc3)c2O)nc1 [Compound 7, 2-(4-(5-hydroxy-1-(5-(methylsulfonyl)pyridin-2-yl)-1H-pyrazol-4-yl)phenyl)acetonitrile] | > 7.00 | > 7.00 | > 7.00 |
| COc1cc(-c2cnn(-c3ccc(S(C)(=O)=O)cn3)c2O)ccn1 [Compound 8, 4-(2-methoxypyridin-4-yl)-1-(5-(methylsulfonyl)pyridin-2-yl)-1H-pyrazol-5-ol] | 6.00 to 7.00 | > 7.00 | > 7.00 |
| CCC(=O)Nc1ccc(-n2ncc(-c3ccc(C#N)cc3)c2O)nc1 [Compound 23, N-(6-(4-(4-cyanophenyl)-5-hydroxy-1H-pyrazol-1-yl)pyridin-3-yl)propionamide] | > 7.00 | > 7.00 | > 7.00 |
| N#Cc1ccc(-c2cnn(-c3ccc(-c4ncco4)cn3)c2O)cc1 [Compound 11, 4-(5-hydroxy-1-(5-(oxazol-2-yl)pyridin-2-yl)-1H-pyrazol-4-yl)benzonitrile] | 6.00 to 7.00 | > 7.00 | > 7.00 |
| N#Cc1ccc(-c2cnn(-c3ccc(-n4cccn4)cn3)c2O)cc1 [Compound 10, 4-(1-(5-(1H-pyrazol-1-yl)pyridin-2-yl)-5-hydroxy-1H-pyrazol-4-yl)benzonitrile] | 6.00 to 7.00 | > 7.00 | > 7.00 |
| CS(=O)(=O)c1ccc(-n2ncc(-c3ccc(F)cc3)c2O)nc1 [Compound 20, 4-(4-fluorophenyl)-1-(5-(methylsulfonyl)pyridin-2-yl)-1H-pyrazol-5-ol] | ≤ 5.00 | > 7.00 | > 7.00 |
| N#Cc1ccc(-c2cnn(-c3ccc(N4CCCC4=O)cn3)c2O)cc1 [Compound 15, 4-(5-hydroxy-1-(5-(2-oxopyrrolidin-1-yl)pyridin-2-yl)-1H-pyrazol-4-yl)benzonitrile] | > 7.00 | > 7.00 | > 7.00 |
| N#Cc1ccc(-c2cnn(-c3ccc(F)cn3)c2O)cc1 [Compound 17, 4-(1-(5-fluoropyridin-2-yl)-5-hydroxy-1H-pyrazol-4-yl)benzonitrile] | 6.00 to 7.00 | > 7.00 | > 7.00 |
| CC(=O)c1ccc(-n2ncc(-c3ccc(C#N)cc3)c2O)nc1 [Compound 1, 4-(1-(5-acetylpyridin-2-yl)-5-hydroxy-1H-pyrazol-4-yl)benzonitrile] | > 7.00 | > 7.00 | > 7.00 |
